The assay has as its system HepG2 viability, ATP luminescence (CellTiter-Glo), 72 h. Description: HepG2 hepatoma cell cytotoxicity, dose response, cytotoxicity control, CellTiter-Glo luminescence, cherry-pick, set 3 (AID 720589). A general note: In ATP-based viability assays light output follows the ATP content of the culture.
On to `CC(=NNc1ccc2ccccc2n1)c1ccccn1`, for which the AC35 was 1.53 µM. With `NC1=CC(=O)C(=O)c2cccnc21`, the AC35 is 13.7 µM.

On to `C[C@H]1CN([C@@H](C)CO)C(=O)c2cc(N(C)C)ccc2O[C@H]1CN(C)Cc1ccc(C(=O)Nc2ccccc2N)cc1`, for which the AC35 is 0.298 µM. Regarding `O=C(N/N=C/c1cnc(N2CCCCC2)s1)c1ccc(C(F)(F)F)cc1`, the AC35 was 14.1 µM. As to `CC(C)N1C/C(=C/c2ccsc2)C(=O)/C(=C/c2ccsc2)C1`, the AC35 was 11.7 µM. Turning to `Nc1nc(N)c2cc(Sc3ccc4ccccc4c3)ccc2n1`, the AC35 was 3.74 µM. Consider `C[C@H]1CN([C@@H](C)CO)C(=O)Cc2cc(NC(=O)CCC(F)(F)F)ccc2O[C@H]1CN(C)Cc1ccc(C(=O)Nc2ccccc2N)cc1`, for which the AC35 was 2.13 µM.

For `CCOc1cc2[nH]c(=S)n(Cc3ccc(C(=O)NCCN(CC)CC)cc3)c(=O)c2cc1OCC`, the AC35 was 15.8 µM. Take `CCc1nc(N)nc(N)c1-c1ccc(Cl)cc1`: the AC35 is 6.43 µM. Regarding `CCN(Cc1ccccc1)c1ccc(/C=N/N=C(N)N)cc1`, the AC35 is 4.18 µM. The value for `Cc1ccc(C)c(S(=O)(=O)N2CCN(c3ncnc4sccc34)CC2)c1` was 4.76 µM; that for `CN1C(=O)c2cc(NC(=O)c3ccc(C(F)(F)F)cc3)ccc2OC[C@@H]2O[C@@H](CC(=O)NC3Cc4ccccc4C3)CC[C@H]21` was 7.45 µM.

The values are drawn from PubChem BioAssay AID720589 (Broad Institute, 2013).
